Test results reported in patent US9738634B2, “Heterocyclic amide compound and herbicide” (SYNGENTA PARTICIPATIONS AG, priority 2013, dated 2017).

What was measured:
Format in all cases: in vivo
[1] = system: soybean; test: Test Example 3: soil treatment, effect on crop; d: soybean; details: treatment dosage 315 g/ha
Summary of the method: (§1)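 Crop and weed responses were judged three weeks after a uniform surface spray of the water-diluted emulsion at the given g/ha rate. Seeds sat beneath about 1.5 cm of sterilized diluvial soil, and boxes stood in a greenhouse at 25 to 30° C.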

[2] = system: redroot pigweed; test: Test Example 4: weedkilling efficacy by foliar treatment; L: redroot pigweed; details: treatment dosage 315 g/ha
Protocol: (§2) Testing of Weedkilling Efficacy by Foliar Treatment
(§3) Sterilized diluvial soil was introduced into 21 cm long, 13 cm wide, 7 cm deep plastic boxes, and seeds of crabgrass, green foxtail, barnyard grass, wild oat, black-grass, Italian ryegrass, common wind-grass, Indian mallow, redroot pigweed, fig-leafed goosefoot, chickweed, catchweed, birds-eye speedwell, corn, soybean, rice, wheat, beet and rapeseed were each spot-sown, and covered with about 1.5 cm of soil, then the plants were grown in a greenhouse at 25 to 30° C.
(§4) After they had grown for 14 days, emulsions of compounds of the present invention prepared according to compounding example 2 were diluted with water to give the specified dosages, and applied uniformly onto the stem and leaf parts with a small sprayer. 3 weeks after the pesticide treatment the effect on each type of plant was investigated on the basis of the assessment criteria of test example 1.
(§5) A: barnyard grass, B: bulrush, C: oval-leafed pondweed, D: crabgrass, E: green foxtail, F: barnyard grass, G: wild oat, H: black-grass, I: Italian ryegrass, J: common wind-grass, K: Indian mallow, L: redroot pigweed, M: fig-leafed goosefoot, N: chickweed, O: catchweed, p: birds-eye speedwell, a: transplanted rice, b: directly sown rice, c: corn, d: soybean, e: wheat, f: beet, g: rapeseed
(§6) Further, pesticide dosage (g/ha) indicates the concentration regulated such that treatment was with only the stated number of grams (g), when calculated per hectare (ha).

[3] = system: Italian ryegrass; test: Test Example 3: weedkilling efficacy through soil treatment; I: Italian ryegrass; details: treatment dosage 315 g/ha
Summary of the method: as §1

[4] = system: wheat; test: Test Example 3: soil treatment, effect on crop; e: wheat; details: treatment dosage 315 g/ha
Summary of the method: as §1

[5] = system: redroot pigweed; test: Test Example 3: weedkilling efficacy through soil treatment; L: redroot pigweed; details: treatment dosage 315 g/ha
Summary of the method: as §1

[6] = system: beet; test: Test Example 4: foliar treatment, effect on crop; f: beet; details: treatment dosage 315 g/ha
Protocol: as §2, §3, §4, §5, §6

[7] = system: crabgrass; test: Test Example 3: weedkilling efficacy through soil treatment; D: crabgrass; details: treatment dosage 315 g/ha
Summary of the method: as §1

[8] = system: barnyard grass; test: Test Example 1: weedkilling efficacy, preemergent weed treatment in the submerged state; A: barnyard grass; details: treatment dosage 252 g/ha
Summary of the method: (§7)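 Pots of alluvial soil were flooded to a 4 cm depth. Mixed weed seeds were sown and 2.5 leaf-stage rice seedlings transplanted. On sowing day, water-diluted emulsion was applied to the water surface (dose in g/ha). After 3 weeks at 25–30 °C, effects were rated.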

[9] = system: green foxtail; test: Test Example 3: weedkilling efficacy through soil treatment; E: green foxtail; details: treatment dosage 315 g/ha
Summary of the method: as §1

[10] = system: transplanted rice; test: Test Example 1: preemergent weed treatment in the submerged state, effect on crop; a: transplanted rice; details: treatment dosage 252 g/ha
Summary of the method: as §7

[11] = system: corn; test: Test Example 3: soil treatment, effect on crop; c: corn; details: treatment dosage 315 g/ha
Summary of the method: as §1

[12] = system: chickweed; test: Test Example 3: weedkilling efficacy through soil treatment; N: chickweed; details: treatment dosage 315 g/ha
Summary of the method: as §1

[13] = system: bulrush; test: Test Example 2: weedkilling efficacy, growth period weed treatment in the submerged state; B: bulrush; details: treatment dosage 252 g/ha
Summary of the method: (§8)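 Weeds treated at the 1-2 leaf stage by application of diluted emulsion onto floodwater (4 cm depth, alluvial soil) at specified g/ha. Grown in greenhouse at 25 to 30° C; herbicidal effect rated three weeks after treatment.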

[14] = system: birds-eye speedwell; test: Test Example 4: weedkilling efficacy by foliar treatment; p: birds-eye speedwell; details: treatment dosage 315 g/ha
Protocol: as §2, §3, §4, §5, §6

[15] = system: black-grass; test: Test Example 3: weedkilling efficacy through soil treatment; H: black-grass; details: treatment dosage 315 g/ha
Summary of the method: as §1

[16] = system: birds-eye speedwell; test: Test Example 3: weedkilling efficacy through soil treatment; p: birds-eye speedwell; details: treatment dosage 315 g/ha
Summary of the method: as §1

[17] = system: bulrush; test: Test Example 1: weedkilling efficacy, preemergent weed treatment in the submerged state; B: bulrush; details: treatment dosage 252 g/ha
Summary of the method: as §7

[18] = system: Italian ryegrass; test: Test Example 4: weedkilling efficacy by foliar treatment; I: Italian ryegrass; details: treatment dosage 315 g/ha
Protocol: as §2, §3, §4, §5, §6

[19] = system: barnyard grass; test: Test Example 2: weedkilling efficacy, growth period weed treatment in the submerged state; A: barnyard grass; details: treatment dosage 252 g/ha
Summary of the method: as §8

[20] = system: directly sown rice; test: Test Example 4: foliar treatment, effect on crop; b: directly sown rice; details: treatment dosage 315 g/ha
Protocol: as §2, §3, §4, §5, §6

[21] = system: fig-leafed goosefoot; test: Test Example 3: weedkilling efficacy through soil treatment; M: fig-leafed goosefoot; details: treatment dosage 315 g/ha
Summary of the method: as §1

[22] = system: wheat; test: Test Example 4: foliar treatment, effect on crop; e: wheat; details: treatment dosage 315 g/ha
Protocol: as §2, §3, §4, §5, §6

[23] = system: crabgrass; test: Test Example 4: weedkilling efficacy by foliar treatment; D: crabgrass; details: treatment dosage 315 g/ha
Protocol: as §2, §3, §4, §5, §6

[24] = system: soybean; test: Test Example 4: foliar treatment, effect on crop; d: soybean; details: treatment dosage 315 g/ha
Protocol: as §2, §3, §4, §5, §6

[25] = system: chickweed; test: Test Example 4: weedkilling efficacy by foliar treatment; N: chickweed; details: treatment dosage 315 g/ha
Protocol: as §2, §3, §4, §5, §6

[26] = system: green foxtail; test: Test Example 4: weedkilling efficacy by foliar treatment; E: green foxtail; details: treatment dosage 315 g/ha
Protocol: as §2, §3, §4, §5, §6

[27] = system: catchweed; test: Test Example 4: weedkilling efficacy by foliar treatment; O: catchweed; details: treatment dosage 315 g/ha
Protocol: as §2, §3, §4, §5, §6

[28] = system: Indian mallow; test: Test Example 3: weedkilling efficacy through soil treatment; K: Indian mallow; details: treatment dosage 315 g/ha
Summary of the method: as §1

[29] = system: corn; test: Test Example 4: foliar treatment, effect on crop; c: corn; details: treatment dosage 315 g/ha
Protocol: as §2, §3, §4, §5, §6

[30] = system: oval-leafed pondweed; test: Test Example 1: weedkilling efficacy, preemergent weed treatment in the submerged state; C: oval-leafed pondweed; details: treatment dosage 252 g/ha
Summary of the method: as §7

[31] = system: black-grass; test: Test Example 4: weedkilling efficacy by foliar treatment; H: black-grass; details: treatment dosage 315 g/ha
Protocol: as §2, §3, §4, §5, §6

[32] = system: Indian mallow; test: Test Example 4: weedkilling efficacy by foliar treatment; K: Indian mallow; details: treatment dosage 315 g/ha
Protocol: as §2, §3, §4, §5, §6

[33] = system: fig-leafed goosefoot; test: Test Example 4: weedkilling efficacy by foliar treatment; M: fig-leafed goosefoot; details: treatment dosage 315 g/ha
Protocol: as §2, §3, §4, §5, §6

[34] = system: beet; test: Test Example 3: soil treatment, effect on crop; f: beet; details: treatment dosage 315 g/ha
Summary of the method: as §1

[35] = system: directly sown rice; test: Test Example 3: soil treatment, effect on crop; b: directly sown rice; details: treatment dosage 315 g/ha
Summary of the method: as §1

[36] = system: oval-leafed pondweed; test: Test Example 2: weedkilling efficacy, growth period weed treatment in the submerged state; C: oval-leafed pondweed; details: treatment dosage 252 g/ha
Summary of the method: as §8

Row | SMILES | d (soybean) effect on crop grade [1] | L (redroot pigweed) weedkilling efficacy grade [2] | I (Italian ryegrass) weedkilling efficacy grade [3] | e (wheat) effect on crop grade [4] | L (redroot pigweed) weedkilling efficacy grade [5] | f (beet) effect on crop grade [6] | D (crabgrass) weedkilling efficacy grade [7] | A (barnyard grass) weedkilling efficacy grade [8] | E (green foxtail) weedkilling efficacy grade [9] | a (transplanted rice) effect on crop grade [10] | c (corn) effect on crop grade [11] | N (chickweed) weedkilling efficacy grade [12] | B (bulrush) weedkilling efficacy grade [13] | P (birds-eye speedwell) weedkilling efficacy grade [14] | H (black-grass) weedkilling efficacy grade [15] | P (birds-eye speedwell) weedkilling efficacy grade [16] | B (bulrush) weedkilling efficacy grade [17] | I (Italian ryegrass) weedkilling efficacy grade [18] | A (barnyard grass) weedkilling efficacy grade [19] | b (directly sown rice) effect on crop grade [20] | other results
1 | CC1=C(c2ccsc2)C(=O)N(C(C)(C)C(=O)Nc2cccc(Cl)n2)CO1 [B-2-05] | 0 (weed kill ratio 5% or less (practically no effect)) | 3 (weed kill ratio 40% or more, less than 70%) | 5 (weed kill ratio 90% or more, (practically complete withering)) | 0 (weed kill ratio 5% or less (practically no effect)) | 4 (weed kill ratio 70% or more, less than 90%) | 4 (weed kill ratio 70% or more, less than 90%) | 5 (weed kill ratio 90% or more, (practically complete withering)) | 5 (weed kill ratio 90% or more, (practically complete withering)) | 5 (weed kill ratio 90% or more, (practically complete withering)) | 0 (weed kill ratio 5% or less (practically no effect)) | 0 (weed kill ratio 5% or less (practically no effect)) | 5 (weed kill ratio 90% or more, (practically complete withering)) | 5 (weed kill ratio 90% or more, (practically complete withering)) | 5 (weed kill ratio 90% or more, (practically complete withering)) | 5 (weed kill ratio 90% or more, (practically complete withering)) | 5 (weed kill ratio 90% or more, (practically complete withering)) | 5 (weed kill ratio 90% or more, (practically complete withering)) | 5 (weed kill ratio 90% or more, (practically complete withering)) | 5 (weed kill ratio 90% or more, (practically complete withering)) | 4 (weed kill ratio 70% or more, less than 90%) | M (fig-leafed goosefoot) weedkilling efficacy grade [21]: 5 (weed kill ratio 90% or more, (practically complete withering)); e (wheat) effect on crop grade [22]: 3 (weed kill ratio 40% or more, less than 70%); D (crabgrass) weedkilling efficacy grade [23]: 5 (weed kill ratio 90% or more, (practically complete withering)); d (soybean) effect on crop grade [24]: 3 (weed kill ratio 40% or more, less than 70%); N (chickweed) weedkilling efficacy grade [25]: 4 (weed kill ratio 70% or more, less than 90%); E (green foxtail) weedkilling efficacy grade [26]: 5 (weed kill ratio 90% or more, (practically complete withering)); O (catchweed) weedkilling efficacy grade [27]: 4 (weed kill ratio 70% or more, less than 90%); K (Indian mallow) weedkilling efficacy grade [28]: 1 (weed kill ratio 5% or more, less than 20%); c (corn) effect on crop grade [29]: 4 (weed kill ratio 70% or more, less than 90%); C (oval-leafed pondweed) weedkilling efficacy grade [30]: 5 (weed kill ratio 90% or more, (practically complete withering)); H (black-grass) weedkilling efficacy grade [31]: 5 (weed kill ratio 90% or more, (practically complete withering)); K (Indian mallow) weedkilling efficacy grade [32]: 3 (weed kill ratio 40% or more, less than 70%); M (fig-leafed goosefoot) weedkilling efficacy grade [33]: 4 (weed kill ratio 70% or more, less than 90%); f (beet) effect on crop grade [34]: 5 (weed kill ratio 90% or more, (practically complete withering)); b (directly sown rice) effect on crop grade [35]: 3 (weed kill ratio 40% or more, less than 70%); C (oval-leafed pondweed) weedkilling efficacy grade [36]: 5 (weed kill ratio 90% or more, (practically complete withering))
2 | CC1=C(c2cccnc2F)C(=O)N(C(C)(C)C(=O)Nc2cccc(Cl)n2)CO1 [B-2-08] | 0 (weed kill ratio 5% or less (practically no effect)) | 4 (weed kill ratio 70% or more, less than 90%) | 5 (weed kill ratio 90% or more, (practically complete withering)) | 3 (weed kill ratio 40% or more, less than 70%) | 4 (weed kill ratio 70% or more, less than 90%) | 5 (weed kill ratio 90% or more, (practically complete withering)) | 5 (weed kill ratio 90% or more, (practically complete withering)) | 5 (weed kill ratio 90% or more, (practically complete withering)) | 5 (weed kill ratio 90% or more, (practically complete withering)) | 0 (weed kill ratio 5% or less (practically no effect)) | 0 (weed kill ratio 5% or less (practically no effect)) | 3 (weed kill ratio 40% or more, less than 70%) | 5 (weed kill ratio 90% or more, (practically complete withering)) | 4 (weed kill ratio 70% or more, less than 90%) | 5 (weed kill ratio 90% or more, (practically complete withering)) | 4 (weed kill ratio 70% or more, less than 90%) | 5 (weed kill ratio 90% or more, (practically complete withering)) | 5 (weed kill ratio 90% or more, (practically complete withering)) | 5 (weed kill ratio 90% or more, (practically complete withering)) | 4 (weed kill ratio 70% or more, less than 90%) | M (fig-leafed goosefoot) weedkilling efficacy grade [21]: 4 (weed kill ratio 70% or more, less than 90%); e (wheat) effect on crop grade [22]: 2 (weed kill ratio 20% or more, less than 40%); D (crabgrass) weedkilling efficacy grade [23]: 5 (weed kill ratio 90% or more, (practically complete withering)); d (soybean) effect on crop grade [24]: 4 (weed kill ratio 70% or more, less than 90%); N (chickweed) weedkilling efficacy grade [25]: 4 (weed kill ratio 70% or more, less than 90%); E (green foxtail) weedkilling efficacy grade [26]: 5 (weed kill ratio 90% or more, (practically complete withering)); O (catchweed) weedkilling efficacy grade [27]: 3 (weed kill ratio 40% or more, less than 70%); K (Indian mallow) weedkilling efficacy grade [28]: 4 (weed kill ratio 70% or more, less than 90%); c (corn) effect on crop grade [29]: 0 (weed kill ratio 5% or less (practically no effect)); C (oval-leafed pondweed) weedkilling efficacy grade [30]: 5 (weed kill ratio 90% or more, (practically complete withering)); H (black-grass) weedkilling efficacy grade [31]: 5 (weed kill ratio 90% or more, (practically complete withering)); K (Indian mallow) weedkilling efficacy grade [32]: 4 (weed kill ratio 70% or more, less than 90%); M (fig-leafed goosefoot) weedkilling efficacy grade [33]: 4 (weed kill ratio 70% or more, less than 90%); f (beet) effect on crop grade [34]: 1 (weed kill ratio 5% or more, less than 20%); b (directly sown rice) effect on crop grade [35]: 5 (weed kill ratio 90% or more, (practically complete withering)); C (oval-leafed pondweed) weedkilling efficacy grade [36]: 5 (weed kill ratio 90% or more, (practically complete withering))
